Laboratory results as given in the supplement of paper PMC11061612.

Key:
Assay in all cases: Bliss excess, mean over the matrix (fraction); higher = more synergy
[1] = system: ATN-1 (T-Lymphoblastic Leukemia)
In short: (§1)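 Cell lines grown in DMEM/F12 or RPMI with 10% FBS were plated in 1536-well plates and held 24 hours at 37°C, 5% CO2 before 72 hours of exposure to two-drug dose matrices, with DMSO typically at 0.2%. CellTiter-Glo 2.0 luminescence gave viability, which was converted to inhibition. Vehicle wells were set to 0 and blank wells to 1. Combination Emax is the second-highest inhibition in the matrix, and Bliss excess is the observed combination effect minus the expected EA + EB − EA·EB, where EA and EB are the single-agent effects.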

[2] = system: BT-474 (Breast Carcinoma)
In short: as §1

[3] = system: C32 (Melanoma)
In short: as §1

[4] = system: CAL-85-1 (Breast Carcinoma)
In short: as §1

[5] = system: DK-MG (Glioblastoma)
In short: as §1

[6] = system: IGROV-1 (Ovarian Carcinoma)
In short: as §1

[7] = system: JURL-MK1 (Chronic Myelogenous Leukemia)
In short: as §1

[8] = system: MG-63 (Osteosarcoma)
In short: as §1

[9] = system: NCI-H1048 (Small Cell Lung Carcinoma)
In short: as §1

[10] = system: NCI-H2170 (Squamous Cell Lung Carcinoma)
In short: as §1

[11] = system: NCI-H2452 (Mesothelioma)
In short: as §1

[12] = system: NTERA-2-cl-D1 (Other Solid Carcinomas)
In short: as §1

[13] = system: OCI-M1 (Acute Myeloid Leukemia)
In short: as §1

[14] = system: OVKATE (Ovarian Carcinoma)
In short: as §1

[15] = system: SBC-3 (Small Cell Lung Carcinoma)
In short: as §1

[16] = system: SBC-5 (Small Cell Lung Carcinoma)
In short: as §1

[17] = system: SCC90 (Head and Neck Carcinoma)
In short: as §1

[18] = system: SK-MEL-24 (Melanoma)
In short: as §1

[19] = system: SK-N-DZ (Neuroblastoma)
In short: as §1

[20] = system: TK (B-Cell Non-Hodgkin's Lymphoma)
In short: as §1

| SMILES | Bliss excess [1] | Bliss excess [2] | Bliss excess [3] | Bliss excess [4] | Bliss excess [5] | Bliss excess [6] | Bliss excess [7] | Bliss excess [8] | Bliss excess [9] | Bliss excess [10] | Bliss excess [11] | Bliss excess [12] | Bliss excess [13] | Bliss excess [14] | Bliss excess [15] | Bliss excess [16] | Bliss excess [17] | Bliss excess [18] | Bliss excess [19] | Bliss excess [20] |
| --- | --- | --- | --- | --- | --- | --- | --- | --- | --- | --- | --- | --- | --- | --- | --- | --- | --- | --- | --- | --- |
| NC1(C(=O)N[C@@H](CCO)c2ccc(Cl)cc2)CCN(c2ncnc3[nH]ccc23)CC1 [Capivasertib] + COc1nnc2ccc(N3CCC(c4ccc(OCCN5CCN(C)C(=O)[C@H]5C)cc4)CC3)nn12 [AZD5153] (first compound max 10 µM, 7x7, partner max 1 µM) | -0.0444 | 0.0761 | 0.0434 | 0.0009 | 0.0534 | -0.0221 | 0.0101 | -0.0237 | 0.0588 | 0.0383 | -0.0192 | -0.0097 | -0.0026 | -0.0368 | -0.0135 | 0.0351 | 0.0079 | 0.0073 | 0.0675 | 0.012 |
| NC1(C(=O)N[C@@H](CCO)c2ccc(Cl)cc2)CCN(c2ncnc3[nH]ccc23)CC1 [Capivasertib] + C[C@@H]1COCCN1C2=NC(=NC(=C2)C3(CC3)[S@](=N)(=O)C)C4=C5C=CNC5=NC=C4 [AZD6738] (first compound max 10 µM, 7x7, partner max 10 µM) | -0.0127 | 0.0314 | -0.0288 | -0.0062 | -0.0405 | -0.0883 | 0.0117 | -0.0524 | -0.0204 | -0.0011 | -0.0827 | -0.0258 | 0.0211 | -0.0516 | -0.0479 | -0.0169 | -0.0541 | -0.027 | 0.0045 | -0.0045 |
| NC1(C(=O)N[C@@H](CCO)c2ccc(Cl)cc2)CCN(c2ncnc3[nH]ccc23)CC1 [Capivasertib] + Cn1cnc2c(F)c(Nc3ccc(Br)cc3Cl)c(C(=O)NOCCO)cc21 [Selumetinib] (first compound max 10 µM, 7x7, partner max 10 µM) | 0.0055 | 0.0509 | 0.0905 | -0.0429 | 0.0686 | -0.0493 | 0.0263 | -0.0011 | 0.0363 | 0.0047 | -0.092 | 0.0064 | 0.0825 | 0.0215 | -0.0353 | 0.0801 | 0.0331 | -0.0145 | 0.0254 | -0.0189 |
| COc1cccc2c1C(=O)c1c(O)c3c(c(O)c1C2=O)C[C@@](O)(C(=O)CO)C[C@@H]3O[C@H]1C[C@H](N)[C@H](O)[C@H](C)O1 [Doxorubicin] + Cc1cc2ncnn2cc1Nc1ncc2c(n1)n(C1CCOCC1)c(=O)n2C [AZD7648] (first compound max 1 µM, 7x7, partner max 10 µM) | 0.0967 | -0.0356 | 0.044 | 0.0095 | 0.0299 | 0.0222 | 0.0792 | 0.0908 | 0.0539 | 0.0706 | 0.0928 | 0.0426 | 0.102 | -0.0594 | 0.0553 | 0.0341 | -0.0226 | 0.0399 | 0.112 | 0.0292 |
| CS(=O)(=O)CCNCc1ccc(-c2ccc3ncnc(Nc4ccc(OCc5cccc(F)c5)c(Cl)c4)c3c2)o1 [Lapatinib] + C[C@@H](Oc1cc(-c2cnn(C3CCNCC3)c2)cnc1N)c1c(Cl)ccc(F)c1Cl [Crizotinib] (first compound max 10 µM, 7x7, partner max 10 µM) | 0.0298 | 0.0284 | -0.0067 | 0.0028 | -0.0556 | -0.0518 | 0.003 | -0.064 | -0.0255 | -0.0026 | -0.0932 | -0.0579 | -0.0347 | -0.0448 | -0.0761 | 0.0601 | 0.0827 | -0.118 | -0.0702 | 0.0129 |
| CC(=O)c1c(C)c2cnc(Nc3ccc(N4CCNCC4)cn3)nc2n(C2CCCC2)c1=O [Palbociclib] + CC1(C)CCC(CN2CCN(c3ccc(C(=O)NS(=O)(=O)c4ccc(NCC5CCOCC5)c([N+](=O)[O-])c4)c(Oc4cnc5[nH]ccc5c4)c3)CC2)=C(c2ccc(Cl)cc2)C1 [Venetoclax] (first compound max 10 µM, 7x7, partner max 1 µM) | 0.0869 | -0.0444 | -0.0322 | -0.0457 | 0.0131 | 0.0026 | -0.0716 | 0.0196 | -0.0339 | 0.0227 | -0.0188 | -0.0389 | 0.007 | -0.0484 | -0.038 | 0.0178 | -0.0435 | -0.0586 | 0.0824 | 0.0332 |
| CC(=O)c1c(C)c2cnc(Nc3ccc(N4CCNCC4)cn3)nc2n(C2CCCC2)c1=O [Palbociclib] + Cc1c2c(nn1C)CSCc1cc(n(C)n1)CSc1cc(c3ccccc3c1)OCCCc1c(C(=O)O)n(C)c3c-2c(Cl)ccc13 [AZD5991] (first compound max 10 µM, 7x7, partner max 1 µM) | -0.0498 | -0.0924 | -0.0069 | -0.0101 | -0.0018 | 0.0122 | -0.112 | 0.0096 | -0.0904 | -0.0189 | -0.0651 | 0.019 | 0.033 | -0.0382 | -0.043 | -0.0171 | -0.0224 | -0.0196 | 0.0655 | -0.0191 |
| CC(=O)c1c(C)c2cnc(Nc3ccc(N4CCNCC4)cn3)nc2n(C2CCCC2)c1=O [Palbociclib] + Cn1cnc2c(F)c(Nc3ccc(Br)cc3Cl)c(C(=O)NOCCO)cc21 [Selumetinib] (first compound max 10 µM, 7x7, partner max 10 µM) | 0.0209 | -0.0418 | -0.0086 | -0.0218 | -0.0133 | 0.0255 | 0.0361 | 0.0263 | -0.0449 | -0.0284 | -0.0682 | -0.007 | 0.0125 | -0.0378 | -0.0396 | 0.0396 | -0.0058 | -0.031 | -0.0848 | -0.0196 |
| COc1cccc(OCCCN)c1-c1cc(Nc2cnc(C#N)cn2)n[nH]1 [Prexasertib] + C=CCn1c(=O)c2cnc(Nc3ccc(N4CCN(C)CC4)cc3)nc2n1-c1cccc(C(C)(C)O)n1 [AZD1775] (first compound max 1 µM, partner max 1 µM) | 0.0134 | -0.0223 | -0.0206 | 0.124 | -0.0125 | -0.0343 | 0.0271 | 0.141 | 0.101 | 0.101 | 0.0473 | 0.19 | 0.0152 | -0.0665 | 0.146 | 0.0356 | 0.0902 | 0.112 | 0.0202 | -0.0252 |
| COc1cccc(OCCCN)c1-c1cc(Nc2cnc(C#N)cn2)n[nH]1 [Prexasertib] + CCc1c2c(nc3ccc(O)cc13)-c1cc3c(c(=O)n1C2)COC(=O)[C@]3(O)CC [SN-38] (first compound max 1 µM, 7x7, partner max 0.3 µM) | 0.0005 | -0.0075 | -0.126 | 0.0699 | -0.0146 | -0.0131 | -0.0109 | -0.0315 | 0.0152 | -0.0326 | 0.103 | 0.0728 | -0.0042 | -0.0292 | -0.0766 | 0.0007 | 0.127 | -0.0557 | 0.0205 | 0.0138 |
| COc1cccc(OCCCN)c1-c1cc(Nc2cnc(C#N)cn2)n[nH]1 [Prexasertib] + CN(C)CCCOc1ccc(-c2ccc3ncc4c(c3c2)n(C2CCOCC2)c(=O)n4C)cn1 [AZD0156] (first compound max 1 µM, 7x7, partner max 1 µM) | 0.0102 | 0.0023 | 0.009 | -0.0157 | -0.0104 | -0.0283 | 0.0231 | 0.0072 | -0.0023 | 0.0156 | -0.0554 | 0.0083 | -0.0504 | -0.069 | -0.0046 | -0.0086 | -0.0634 | 0.0017 | 0.0108 | -0.0412 |
| COc1cccc(OCCCN)c1-c1cc(Nc2cnc(C#N)cn2)n[nH]1 [Prexasertib] + C[C@@H]1COCCN1C2=NC(=NC(=C2)C3(CC3)[S@](=N)(=O)C)C4=C5C=CNC5=NC=C4 [AZD6738] (first compound max 1 µM, 7x7, partner max 10 µM) | -0.0207 | -0.0233 | -0.0529 | 0.05 | 0.0073 | -0.0567 | 0.0056 | 0.0234 | -0.0191 | -0.0461 | -0.0061 | 0.0172 | -0.0504 | -0.0378 | -0.0201 | -0.0272 | -0.0457 | -0.0061 | 0.008 | -0.083 |
| COc1cccc(OCCCN)c1-c1cc(Nc2cnc(C#N)cn2)n[nH]1 [Prexasertib] + Cc1cc2ncnn2cc1Nc1ncc2c(n1)n(C1CCOCC1)c(=O)n2C [AZD7648] (first compound max 1 µM, 7x7, partner max 10 µM) | 0.0136 | -0.0188 | -0.004 | 0.0382 | 0.0253 | -0.0264 | 0.0485 | -0.0128 | -0.0275 | -0.0074 | -0.0623 | -0.0688 | -0.0483 | -0.0853 | -0.0512 | -0.0116 | -0.036 | 0.0054 | -0.0049 | -0.0477 |
| COc1cccc(OCCCN)c1-c1cc(Nc2cnc(C#N)cn2)n[nH]1 [Prexasertib] + O=C(c1cc(Cc2n[nH]c(=O)c3ccccc23)ccc1F)N1CCN(C(=O)C2CC2)CC1 [Olaparib] (first compound max 1 µM, 7x7, partner max 10 µM) | -0.0078 | -0.037 | -0.0459 | -0.0209 | 0.0193 | -0.111 | -0.0042 | -0.0745 | -0.0073 | -0.106 | -0.0874 | 0.0401 | -0.0322 | -0.062 | -0.0544 | -0.0376 | -0.095 | -0.0381 | -0.0511 | -0.0837 |
| CCc1c2c(nc3ccc(O)cc13)-c1cc3c(c(=O)n1C2)COC(=O)[C@]3(O)CC [SN-38] + CN(C)CCCOc1ccc(-c2ccc3ncc4c(c3c2)n(C2CCOCC2)c(=O)n4C)cn1 [AZD0156] (first compound max 0.3 µM, 7x7, partner max 1 µM) | 0.0407 | -0.047 | 0.0537 | -0.0349 | -0.0007 | -0.0101 | 0.0551 | -0.0166 | 0.0147 | 0.0296 | -0.0197 | -0.0591 | 0.0128 | -0.0763 | -0.0894 | 0.0245 | 0.0059 | 0.0267 | 0.0604 | 0.0322 |
